From ChEMBL document CHEMBL1201862, “PubChem BioAssay data set” (2004)
Calls of active or inactive are those of the source.

Experiments:
[1] = biological target: T1, High affinity choline transporter 1 (Homo sapiens, UniProt Q9GZV3); experiment: CHT inhibitors, dose response, cell-based, 5-point CRC, membrane potential dye (AID 504840); format: functional
T1 sequence (Q9GZV3 whole entry): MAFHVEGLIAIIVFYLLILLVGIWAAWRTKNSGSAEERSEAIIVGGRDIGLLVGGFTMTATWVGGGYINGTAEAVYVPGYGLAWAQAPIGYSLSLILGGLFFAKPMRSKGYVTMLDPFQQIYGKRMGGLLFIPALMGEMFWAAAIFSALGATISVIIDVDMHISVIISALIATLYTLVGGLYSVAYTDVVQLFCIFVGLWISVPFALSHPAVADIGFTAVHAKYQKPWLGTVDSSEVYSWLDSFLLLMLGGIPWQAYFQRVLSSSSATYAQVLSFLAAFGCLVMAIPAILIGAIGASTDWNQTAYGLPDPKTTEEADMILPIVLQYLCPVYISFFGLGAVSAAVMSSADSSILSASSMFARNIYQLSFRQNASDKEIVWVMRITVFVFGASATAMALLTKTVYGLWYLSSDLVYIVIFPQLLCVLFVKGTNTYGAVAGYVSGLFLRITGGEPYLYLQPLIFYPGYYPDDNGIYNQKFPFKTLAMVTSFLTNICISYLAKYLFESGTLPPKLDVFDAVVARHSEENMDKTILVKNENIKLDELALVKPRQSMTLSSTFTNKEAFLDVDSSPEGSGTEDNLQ

[2] = biological target: Neurotensin receptor type 1 (Homo sapiens, UniProt P30989); format: functional;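 also: Image-based confirmatory dose-response assay measuring agonist activity at NTR1; NTR1-expressing U2OS osteosarcoma cells imaged for beta-arrestin GFP spot formation; agonist potency where compounds increase beta-arrestin recruitment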
Chain of Neurotensin receptor type 1 (P30989 whole entry): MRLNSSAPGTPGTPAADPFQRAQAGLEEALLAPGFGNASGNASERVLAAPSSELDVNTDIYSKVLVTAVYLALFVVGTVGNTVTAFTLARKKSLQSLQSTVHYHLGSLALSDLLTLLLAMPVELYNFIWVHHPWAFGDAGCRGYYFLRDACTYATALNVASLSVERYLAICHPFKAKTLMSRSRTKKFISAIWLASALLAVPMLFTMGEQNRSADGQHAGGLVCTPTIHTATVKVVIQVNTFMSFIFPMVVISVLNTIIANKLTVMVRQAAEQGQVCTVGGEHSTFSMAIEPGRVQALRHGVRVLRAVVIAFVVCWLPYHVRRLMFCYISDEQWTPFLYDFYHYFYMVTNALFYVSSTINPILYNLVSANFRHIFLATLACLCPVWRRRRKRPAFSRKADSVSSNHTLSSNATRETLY

[3] = microbe, parasite or virus in culture; format: functional; conditions: Mycobacterium tuberculosis
INS1 = experiment: beta cell apoptosis inhibitors, cytokine rescue, dose response, luminescence, retest (AID 449756); format: functional, cell-based; conditions: Rattus norvegicus, INS1;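 also: cell death triggered by IL-1 beta plus TNF-alpha plus IFN-gamma mixture; protective hits raise ATP signal compared with cytokine alone wells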
X-box-binding protein 1 = X-box-binding protein 1 (Homo sapiens, UniProt P17861); format: functional, Cricetulus griseus;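 also: confirmatory dose-response counter-screen serving a CHOP assay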
Chain of X-box-binding protein 1 (P17861 whole entry): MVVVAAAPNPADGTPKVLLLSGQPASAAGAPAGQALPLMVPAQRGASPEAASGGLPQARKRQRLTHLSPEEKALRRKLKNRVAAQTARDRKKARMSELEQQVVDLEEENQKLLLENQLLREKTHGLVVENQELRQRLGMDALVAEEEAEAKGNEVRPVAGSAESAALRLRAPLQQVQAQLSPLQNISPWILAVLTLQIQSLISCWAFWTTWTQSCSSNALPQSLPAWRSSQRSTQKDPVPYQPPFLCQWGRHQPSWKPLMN

[4] = biological target: DNA damage-inducible transcript 3 protein (Mus musculus, UniProt P35639); format: functional, Cricetulus griseus
Chain of DNA damage-inducible transcript 3 protein (P35639 whole entry): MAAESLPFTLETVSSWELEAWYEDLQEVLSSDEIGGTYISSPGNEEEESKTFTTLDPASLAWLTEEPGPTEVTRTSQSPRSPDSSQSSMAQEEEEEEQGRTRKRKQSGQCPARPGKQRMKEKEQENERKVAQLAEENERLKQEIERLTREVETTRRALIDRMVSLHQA

[5] = biological target: Luciferin 4-monooxygenase (Photinus pyralis, UniProt P08659); experiment: firefly luciferase enzyme inhibitors, dose response, biochemical, luminescence (AID 1891)
Chain of Luciferin 4-monooxygenase (P08659 whole entry): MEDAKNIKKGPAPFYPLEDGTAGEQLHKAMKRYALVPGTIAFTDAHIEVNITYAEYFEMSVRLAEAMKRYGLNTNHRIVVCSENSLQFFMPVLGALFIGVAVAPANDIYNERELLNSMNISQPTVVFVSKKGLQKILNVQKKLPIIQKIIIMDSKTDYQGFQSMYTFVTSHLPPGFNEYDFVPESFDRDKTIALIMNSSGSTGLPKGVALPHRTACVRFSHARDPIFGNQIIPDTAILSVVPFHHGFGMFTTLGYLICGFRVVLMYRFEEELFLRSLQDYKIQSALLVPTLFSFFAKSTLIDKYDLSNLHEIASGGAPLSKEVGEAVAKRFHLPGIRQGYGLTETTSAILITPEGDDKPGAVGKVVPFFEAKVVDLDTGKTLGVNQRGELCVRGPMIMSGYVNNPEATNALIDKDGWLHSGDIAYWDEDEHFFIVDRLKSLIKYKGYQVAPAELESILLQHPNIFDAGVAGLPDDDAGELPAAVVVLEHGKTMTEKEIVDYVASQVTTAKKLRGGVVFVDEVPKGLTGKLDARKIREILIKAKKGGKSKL

[6] = biological target: Metabotropic glutamate receptor 4 (Homo sapiens, UniProt Q14833); experiment: Modulation of the Metabotropic Glutamate Receptor mGluR4: Potency at human mGluR4. Modulation of intracellular Ca2+ using Fluo-4, AM, in CHO expressing recombinant receptor [Related pubchem assays (depositor defined):AID2437, AID2807]; format: functional, cell-based
Chain of Metabotropic glutamate receptor 4 (Q14833 whole entry): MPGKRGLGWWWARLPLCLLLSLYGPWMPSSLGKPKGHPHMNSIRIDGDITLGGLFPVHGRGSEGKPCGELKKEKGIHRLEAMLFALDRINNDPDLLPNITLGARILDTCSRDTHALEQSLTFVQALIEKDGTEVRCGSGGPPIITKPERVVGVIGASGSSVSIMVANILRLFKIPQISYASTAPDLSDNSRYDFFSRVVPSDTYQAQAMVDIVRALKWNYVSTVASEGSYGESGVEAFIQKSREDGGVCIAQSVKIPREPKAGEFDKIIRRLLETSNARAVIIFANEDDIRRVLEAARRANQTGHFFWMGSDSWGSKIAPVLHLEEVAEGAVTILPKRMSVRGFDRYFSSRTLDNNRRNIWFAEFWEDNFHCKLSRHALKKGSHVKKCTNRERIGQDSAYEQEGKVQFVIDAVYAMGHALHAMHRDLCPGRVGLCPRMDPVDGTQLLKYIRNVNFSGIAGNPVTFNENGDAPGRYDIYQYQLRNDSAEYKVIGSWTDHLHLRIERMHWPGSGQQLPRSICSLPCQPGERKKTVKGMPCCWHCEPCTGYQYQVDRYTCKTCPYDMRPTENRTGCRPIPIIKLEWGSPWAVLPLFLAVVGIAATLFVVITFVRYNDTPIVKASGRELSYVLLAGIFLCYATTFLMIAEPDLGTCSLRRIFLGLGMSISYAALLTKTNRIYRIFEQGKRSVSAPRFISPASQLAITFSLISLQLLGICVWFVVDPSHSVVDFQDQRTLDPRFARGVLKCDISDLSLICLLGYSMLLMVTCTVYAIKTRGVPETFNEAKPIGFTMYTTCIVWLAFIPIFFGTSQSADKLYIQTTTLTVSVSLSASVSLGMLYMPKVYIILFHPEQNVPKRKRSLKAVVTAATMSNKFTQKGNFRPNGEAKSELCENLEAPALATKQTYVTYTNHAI

[7] = Luminescence Cell-Based Dose Confirmation HTS to Identify Inhibitors of Platelet Dense Granule Release. [Related pubchem assays: 1663 (Primary HTS), 1678 (Summary of Project)]; format: functional
[8] = inhibition of K1F phage lysis, E. coli UTI89, bacterial capsule biogenesis inhibitors, alamar blue (AID 488966); format: functional
[9] = biological target: NACHT, LRR and PYD domains-containing protein 3 (Homo sapiens, UniProt Q96P20); experiment: NALP3 inhibitors in yeast, dose response, luminescent (AID 488799); format: functional
Chain of NACHT, LRR and PYD domains-containing protein 3 (Q96P20 whole entry, the tested form may be a part): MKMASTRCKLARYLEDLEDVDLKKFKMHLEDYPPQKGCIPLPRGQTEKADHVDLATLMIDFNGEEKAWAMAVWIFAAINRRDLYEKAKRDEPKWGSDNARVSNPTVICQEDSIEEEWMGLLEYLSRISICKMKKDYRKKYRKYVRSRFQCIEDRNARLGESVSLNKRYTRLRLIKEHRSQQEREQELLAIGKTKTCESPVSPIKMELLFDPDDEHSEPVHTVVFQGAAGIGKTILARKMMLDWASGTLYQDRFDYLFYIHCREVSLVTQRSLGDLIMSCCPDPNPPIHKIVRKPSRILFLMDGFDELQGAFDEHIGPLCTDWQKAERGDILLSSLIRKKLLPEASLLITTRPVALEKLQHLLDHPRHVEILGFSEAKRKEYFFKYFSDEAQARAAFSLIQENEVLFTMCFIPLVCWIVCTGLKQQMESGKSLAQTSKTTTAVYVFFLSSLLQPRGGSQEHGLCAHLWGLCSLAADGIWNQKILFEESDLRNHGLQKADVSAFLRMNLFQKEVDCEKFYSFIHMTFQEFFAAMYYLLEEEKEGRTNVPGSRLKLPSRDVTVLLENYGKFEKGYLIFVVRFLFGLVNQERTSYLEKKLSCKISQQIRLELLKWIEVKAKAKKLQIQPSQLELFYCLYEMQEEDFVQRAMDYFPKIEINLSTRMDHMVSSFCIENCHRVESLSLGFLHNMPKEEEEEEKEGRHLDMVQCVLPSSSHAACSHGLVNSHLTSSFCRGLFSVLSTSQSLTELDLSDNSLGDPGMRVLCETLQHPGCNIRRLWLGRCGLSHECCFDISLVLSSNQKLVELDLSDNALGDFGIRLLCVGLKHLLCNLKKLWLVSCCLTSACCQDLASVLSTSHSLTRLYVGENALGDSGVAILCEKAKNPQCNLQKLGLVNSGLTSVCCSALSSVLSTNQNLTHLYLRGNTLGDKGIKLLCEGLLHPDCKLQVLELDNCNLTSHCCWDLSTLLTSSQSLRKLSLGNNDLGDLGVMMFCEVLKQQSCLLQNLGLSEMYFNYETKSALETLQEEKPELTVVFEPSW

Neutrophil collagenase = Neutrophil collagenase (Homo sapiens, UniProt P22894); experiment: MMP13 inhibition and MMP selectivity, late-stage follow-up, selectivity assay for MMP13 inhibitor project, biochemical, probe development, late stage results, panel member MMP-8 [IC50 Assay] (AID 2067)
Chain of Neutrophil collagenase (P22894 whole entry): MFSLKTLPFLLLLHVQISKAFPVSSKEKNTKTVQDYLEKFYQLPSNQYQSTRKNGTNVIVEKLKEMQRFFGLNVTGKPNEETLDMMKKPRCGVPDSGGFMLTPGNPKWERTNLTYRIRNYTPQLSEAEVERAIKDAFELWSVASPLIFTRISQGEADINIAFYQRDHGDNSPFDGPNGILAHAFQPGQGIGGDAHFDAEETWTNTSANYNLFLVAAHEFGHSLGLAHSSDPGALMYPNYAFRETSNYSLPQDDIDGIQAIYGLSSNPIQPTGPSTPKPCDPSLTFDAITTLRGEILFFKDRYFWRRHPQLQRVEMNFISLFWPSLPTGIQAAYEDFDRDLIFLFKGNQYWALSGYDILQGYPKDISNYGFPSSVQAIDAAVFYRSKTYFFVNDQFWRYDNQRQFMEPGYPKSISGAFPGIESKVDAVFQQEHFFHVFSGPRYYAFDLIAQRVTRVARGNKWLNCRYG

cells = format: functional, cell-based; conditions: PPC-1
MDA-MB-435 = experiment: cells; format: functional, cell-based; conditions: Homo sapiens

COc1ccc(C(CCN2CCCCC2)c2c(OC)cc(OC)c3c(-c4ccccc4)cc(=O)oc23)cc1 (centres undefined)
IC50 [1]: 12.6 µM (active)
EC50 [2]: 14.7 µM (active)
CC50 [3]: 20.5 µM (active)
AC50 (INS1): 10.7 µM (active)

O=C(Nc1cccc(C(F)(F)F)c1)NC1CCN(S(=O)(=O)c2ccc(F)cc2)CC1
Absolute IC50 (XBP1) (X-box-binding protein 1): 10 µM
Absolute IC50 (CHOP) [4]: 10 µM

COc1ccc(NC(=O)c2ccccn2)cc1OC
EC50 [5]: > 112 µM (not active)
EC50 [6]: 3.65 µM (active)
EC50 [7]: 42.7 µM (active)

O=C(Nc1ccc(N2CCOCC2)cc1)c1ccc2ncsc2c1
IC50 [8]: > 150 µM (active)

Cc1onc(-c2ccccc2Cl)c1C(=O)N1C=CC(C(F)(F)F)=NCC1
IC50 [9]: 8.66 µM (active)

Cc1ccc(CSc2nc3c(c(=O)[nH]2)CCC3)cc1
IC50 (Neutrophil collagenase): > 39.8 µM (inactive)

CSc1nc(-c2ccccc2)nc(C(C)C)n1
IC50 (cells): > 10 µM (inactive)
IC50 (MDA-MB-435): > 10 µM (inactive)
